Patent publication US8822485B2, “Amino heteroaryl compounds as beta-secretase modulators and methods of use” (Amgen Inc., priority 2010, dated 2014)

How the values were obtained:
[1] = molecular target: BACE1 (Homo sapiens, UniProt P56817); test: In vitro enzymatic BACE FRET assay; assay type: biochemical; details: IC50 range class; 0.2 nM enzyme, 50 nM FRET substrate, pH 4.2
Procedure: In Vitro Enzymatic BACE FRET (Fluorescence Resonance Energy Transfer) Assay (Enzyme Assay Data in Table 1)
The assay buffer used in this screen is 0.05 M acetate, pH 4.2, 10% DMSO final, 100 uM genapol (which is a nonionic detergent, below its Critical Micelle Concentration). The Beta Secretase enzyme (0.2 nM) is pre-incubated for one hour with inhibitors, typically in about 1 uL of DMSO according to a serial dilution, are added thereto. The assay is effectively started by the addition of FRET substrate (50 nM) and the combination is incubated for one hour. The FRET assay is terminated with by addition of Tris buffer, which raises the pH to neutrality, and the fluorescence is determined. The FRET substrate is a peptide with commercially available fluorophore and quencher, on opposite sides of the BACE cleavage site. Proteolytic cleavage of the FRET substrate releases quenching of fluorescence (excitation […] and […]).
Of the compounds tested, the in-vitro BACE FRET enzyme data for each of Examples 1-33, where available at the time of filing this application, is provided in Table 1.

[2] = system: Aβ40 in conditioned medium of cells stably expressing Amyloid Precursor Protein (APP) (HEK cell); test: In vitro BACE cell-based assay (HEK cell assay, Aβ40 sandwich ELISA); details: Homo sapiens, HEK293; IC50 range class; inhibition of Aβ40 after 24 h incubation
Procedure: In Vitro BACE Cell-Based Assay:
The cell-based assay measures inhibition or reduction of Aβ40 □ in conditioned medium of test compound treated cells expressing amyloid precursor protein.
Cells stably expressing Amyloid Precursor Protein (APP) were plated at a density of 40K cells/well in 96 well plates (Costar). The cells were cultivated for 24 hours at 37° C. and 5% CO2 in DMEM supplemented with 10% FBS. The test compounds were then added to cells in 10-point dose response concentrations with the starting concentration being either 100 μM or 10 μM. The compounds were diluted from stock solutions in DMSO and the final DMSO concentration of the test compounds on cells was 0.1%. After 24 h of incubation with the test compounds the supernatant conditioned media was collected and the Aβ 40 levels were determined using a sandwich ELISA. The IC50 of the compound was calculated from the percent of control or percent inhibition of Aβ40 as a function of the concentration of the test compound.
The sandwich ELISA to detect Aβ 40 was performed in 96 well microtiter plates, which were pre-treated with goat anti-rabbit IgG (Pierce). The capture and detecting antibody pair that were used to detect Aβ 40 from cell supernatants were affinity purified pAb40 (Biosource) and biotinylated 6E10 (Signet Labs Inc.), respectively. The optimal concentration for the pAb40 antibody was 3 μg/ml in Superblock/TBS (Pierce) that was supplemented with 0.05% Tween 20 (Sigma). Optimal concentration for the detection antibody 6E10-biotinylated was 0.5 μg/ml in Superblock/TBS (Pierce) that had been supplemented with 2% normal goat serum and 2% normal mouse serum.
Cellular supernatants were incubated with the capture antibody for 3 h at 4° C., followed by 3 wash steps in TBS-tween (0.05%). The detecting antibody incubation was for 2 h at 4° C., again followed by the wash steps as described previously. The final readout of the ELISA is Time-Resolved Fluorescence (counts per minute) using Delfia reagents Streptavidin-Europium and Enhancement solutions (Perkin Elmer) and the Victor 2 multilabel counter (Perkin Elmer).
Of the compounds tested, the cell based assay data for each of Examples 1-33, where available at the time of filing this application, is provided in Table 1.

Chain of BACE1 (P56817 46-501, species assumed): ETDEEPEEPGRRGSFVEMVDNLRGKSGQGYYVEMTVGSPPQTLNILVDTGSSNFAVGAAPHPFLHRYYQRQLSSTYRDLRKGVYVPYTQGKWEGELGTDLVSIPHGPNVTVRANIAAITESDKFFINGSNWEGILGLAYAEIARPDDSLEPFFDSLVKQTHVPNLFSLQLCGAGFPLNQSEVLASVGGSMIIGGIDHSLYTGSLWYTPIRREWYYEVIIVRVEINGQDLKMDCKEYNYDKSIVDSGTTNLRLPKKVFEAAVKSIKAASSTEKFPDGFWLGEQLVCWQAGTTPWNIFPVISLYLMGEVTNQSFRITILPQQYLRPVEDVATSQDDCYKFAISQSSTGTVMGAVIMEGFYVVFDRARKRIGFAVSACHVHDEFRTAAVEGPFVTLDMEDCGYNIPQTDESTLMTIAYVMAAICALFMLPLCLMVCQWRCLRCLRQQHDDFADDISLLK

Cc1ccccc1-c1ccc2nc(N)c(CCc3cncc(C4CCCCC4)c3)cc2c1 [Example 3, 3-(2-(5-cyclohexylpyridin-3-yl)ethyl)-6-o-tolylquinolin-2-amine]
IC50 [1]: < 100 nM | IC50 [2]: > 5 µM

Cc1ccccc1-c1ccc2nc(N)c(CC(C)c3cc(C4CCCC4)ncn3)cc2c1 (centres unmarked) [Example 13, 3-(2-(6-cyclopentylpyrimidin-4-yl)propyl)-6-o-tolylquinolin-2-amine]
IC50 [1]: < 100 nM | IC50 [2]: 1 to 5 µM

Cc1cccnc1-c1ccc2nc(N)c(CCc3cc(C4CCOCC4)ncn3)cc2c1 [Example 20, 6-(3-methylpyridin-2-yl)-3-(2-(6-(tetrahydro-2H-pyran-4-yl)pyrimidin-4-yl)ethyl)quinolin-2-amine]
IC50 [1]: 100 to 1000 nM | IC50 [2]: 1 to 5 µM

Cc1ccccc1-c1ccc2nc(N)c(CCc3cc4ccccc4[nH]3)cc2c1 [Example 17, 3-(2-(1H-indol-2-yl)ethyl)-6-o-tolylquinolin-2-amine]
IC50 [1]: 1000 to 5000 nM | IC50 [2]: 0.5 to 1 µM

CCc1cncc(CCc2cc3cc(-c4ccccc4C)ccc3nc2N)c1 [Example 5, 3-(2-(5-ethylpyridin-3-yl)ethyl)-6-o-tolylquinolin-2-amine]
IC50 [1]: 1000 to 5000 nM | IC50 [2]: 1 to 5 µM

Cc1ccccc1-c1ccc2nc(N)c(CC(C)c3cncc(C4CCCCC4)c3)cc2c1 (centres unmarked) [Example 27, 3-(2-(5-cyclohexylpyridin-3-yl)propyl)-6-o-tolylquinolin-2-amine]
IC50 [1]: < 100 nM | IC50 [2]: > 5 µM

Cc1ccccc1-c1ccc2nc(N)c(COc3cc(C(F)(F)F)ncn3)cc2c1 [Example 11, 6-o-tolyl-3-((6-(trifluoromethyl)pyrimidin-4-yloxy)methyl)quinolin-2-amine]
IC50 [1]: 100 to 1000 nM | IC50 [2]: > 5 µM

Cc1ccccc1-c1ccc2nc(N)c(C3CCCC3c3cc(C4CCCC4)ncn3)cc2c1 (centres unmarked) [Example 1, 3-(2-(6-cyclopentylpyrimidin-4-yl)cyclopentyl)-6-o-tolylquinolin-2-amine]
IC50 [1]: < 100 nM | IC50 [2]: > 5 µM

Cc1cccc(C(=O)N2CCCC2)c1-c1ccc2nc(N)c(CCc3cncnc3)cc2c1 [Example 33, (2-(2-amino-3-(2-(pyrimidin-5-yl)ethyl)quinolin-6-yl)-3-methylphenyl)(pyrrolidin-1-yl)methanone]
IC50 [1]: < 100 nM | IC50 [2]: < 0.5 µM

Cc1cccnc1-c1ccc2nc(N)c(CCc3cc(C(C)(C)C)ncn3)cc2c1 [Example 16, 3-(2-(6-tert-butylpyrimidin-4-yl)ethyl)-6-(3-methylpyridin-2-yl)quinolin-2-amine]
IC50 [1]: 100 to 1000 nM | IC50 [2]: 1 to 5 µM

Cc1ccccc1-c1ccc2nc(N)c(CC(C)c3cncc(C4CCCCO4)c3)cc2c1 (centres unmarked) [Example 26, 3-(2-(5-(tetrahydro-2H-pyran-2-yl)pyridin-3-yl)propyl)-6-o-tolylquinolin-2-amine]
IC50 [1]: 100 to 1000 nM | IC50 [2]: 1 to 5 µM

Cc1cccc(C(=O)N2CCCC2C)c1-c1ccc2nc(N)c(CCc3cncnc3)cc2c1 (racemic) [Example 32, (±)-(2-(2-amino-3-(2-(pyrimidin-5-yl)ethyl)quinolin-6-yl)-3-methylphenyl)(2-methylpyrrolidin-1-yl)methanone]
IC50 [1]: < 100 nM | IC50 [2]: < 0.5 µM

Cc1cccnc1-c1ccc2nc(N)c(CCc3cc(CC(C)(C)C)ncn3)cc2c1 [Example 6, 6-(3-methylpyridin-2-yl)-3-(2-(6-neopentylpyrimidin-4-yl)ethyl)quinolin-2-amine]
IC50 [1]: 100 to 1000 nM | IC50 [2]: 1 to 5 µM

Cc1cccc(C(=O)N2CCCC2)c1-c1ccc2nc(N)c(COc3cc(C(F)(F)F)ncn3)cc2c1 [Example 34, (2-(2-amino-3-((6-(trifluoromethyl)pyrimidin-4-yloxy)methyl)quinolin-6-yl)-3-methylphenyl)(pyrrolidin-1-yl)methanone]
IC50 [1]: 100 to 1000 nM | IC50 [2]: 1 to 5 µM

Cc1ccccc1-c1ccc2nc(N)c(CCc3ccccn3)cc2c1 [Example 29, 3-(2-(pyridin-2-yl)ethyl)-6-o-tolylquinolin-2-amine]
IC50 [1]: 1000 to 5000 nM | IC50 [2]: > 5 µM

CCc1cc(OCc2cc3cc(-c4ccccc4C)ccc3nc2N)ncn1 [Example 14, 6-o-tolyl-3-((6-ethylpyrimidin-4-yloxy)methyl)quinolin-2-amine]
IC50 [1]: > 5000 nM | IC50 [2]: > 5 µM

Cc1ccccc1-c1ccc2nc(N)c(CCc3cncc(C4CCCCO4)c3)cc2c1 (centres unmarked) [Example 31, 3-(2-(5-(tetrahydro-2H-pyran-2-yl)pyridin-3-yl)ethyl)-6-o-tolylquinolin-2-amine]
IC50 [1]: 100 to 1000 nM | IC50 [2]: 1 to 5 µM

Cc1ccccc1-c1ccc2nc(N)c(C=Cc3cnn(C4CCCCC4)c3)cc2c1 [Example 24, 3-(2-(1-cyclohexyl-1H-pyrazol-4-yl)vinyl)-6-o-tolylquinolin-2-amine]
IC50 [1]: 1000 to 5000 nM | IC50 [2]: > 5 µM

Cc1ccccc1-c1ccc2nc(N)c(CCc3cc(C(C)(C)C)ncn3)cc2c1 [Example 8, 3-(2-(6-tert-butylpyrimidin-4-yl)ethyl)-6-o-tolylquinolin-2-amine]
IC50 [1]: < 100 nM | IC50 [2]: 1 to 5 µM

Cc1cccnc1-c1ccc2nc(N)c(CC(C)c3cc(CC(C)(C)C)ncn3)cc2c1 (centres unmarked) [Example 15, 6-(3-methylpyridin-2-yl)-3-(2-(6-neopentylpyrimidin-4-yl)propyl)quinolin-2-amine]
IC50 [1]: 100 to 1000 nM | IC50 [2]: 0.5 to 1 µM

Cc1ccccc1-c1ccc2nc(N)c(C3OCCCC3c3cc(CC(C)(C)C)ncn3)cc2c1 (single isomer, unassigned) [Example 7]
IC50 [1]: < 100 nM | IC50 [2]: 1 to 5 µM

Cc1ccccc1-c1ccc2nc(N)c(CC(C)c3cc(CC(C)(C)C)ncn3)cc2c1 (centres unmarked) [Example 9, 3-(2-(6-neopentylpyrimidin-4-yl)propyl)-6-o-tolylquinolin-2-amine]
IC50 [1]: < 100 nM | IC50 [2]: 0.5 to 1 µM

Cc1ccccc1-c1ccc2nc(N)c(CCc3cnn(Cc4ccccc4)c3)cc2c1 [Example 19, 3-(2-(1-benzyl-1H-pyrazol-4-yl)ethyl)-6-o-tolylquinolin-2-amine]
IC50 [1]: 100 to 1000 nM | IC50 [2]: 1 to 5 µM

Cc1ccccc1-c1ccc2nc(N)c(C=Cc3cncc(C4=CCCCC4)c3)cc2c1 [Example 2, 3-(2-(5-cyclohexenylpyridin-3-yl)vinyl)-6-o-tolylquinolin-2-amine]
IC50 [1]: 100 to 1000 nM | IC50 [2]: > 5 µM

CCc1cc(C(C)Cc2cc3cc(-c4ccccc4C)ccc3nc2N)ncn1 (centres unmarked) [Example 10, 3-(2-(6-ethylpyrimidin-4-yl)propyl)-6-o-tolylquinolin-2-amine]
IC50 [1]: 100 to 1000 nM | IC50 [2]: 1 to 5 µM

Cc1ccccc1-c1ccc2nc(N)c(CCc3cccc(C(F)(F)F)c3)cc2c1 [Example 23, 6-o-tolyl-3-(3-(trifluoromethyl)phenethyl)quinolin-2-amine]
IC50 [1]: 1000 to 5000 nM | IC50 [2]: > 5 µM

Cc1ccccc1-c1ccc2nc(N)c(CCc3cnn(C4CCCCC4)c3)cc2c1 [Example 25, 3-(2-(1-cyclohexyl-1H-pyrazol-4-yl)ethyl)-6-o-tolylquinolin-2-amine]
IC50 [1]: < 100 nM | IC50 [2]: 1 to 5 µM

Cc1ccccc1-c1ccc2nc(N)c(CCc3cncc(CC(C)(C)C)c3)cc2c1 [Example 21, 3-(2-(5-neopentylpyridin-3-yl)ethyl)-6-o-tolylquinolin-2-amine]
IC50 [1]: 100 to 1000 nM | IC50 [2]: > 5 µM

Cc1ccccc1-c1ccc2nc(N)c(CCc3cncc(CCC(C)(C)C)c3)cc2c1 [Example 22, 3-(2-(5-(3,3-dimethylbutyl)pyridin-3-yl)ethyl)-6-o-tolylquinolin-2-amine]
IC50 [1]: 100 to 1000 nM | IC50 [2]: > 5 µM

Cc1ccccc1-c1ccc2nc(N)c(CCc3cnco3)cc2c1 [Example 28, 3-(2-(oxazol-5-yl)ethyl)-6-o-tolylquinolin-2-amine]
IC50 [1]: 1000 to 5000 nM | IC50 [2]: > 5 µM

Cc1ccccc1-c1ccc2nc(N)c(CC(C)c3cncc(C4CCCC4)c3)cc2c1 (centres unmarked) [Example 30, 3-(2-(5-cyclopentylpyridin-3-yl)propyl)-6-o-tolylquinolin-2-amine]
IC50 [1]: < 100 nM | IC50 [2]: 1 to 5 µM
